From publication PMC8037669, “Discovery of Novel Sultone Fused Berberine Derivatives as Promising Tdp1 Inhibitors” (Molecules, 2021)
Where “and” joins values, the source holds several entries; their conditions need not be identical. Equal entries are not always repeated. Entries after “also recorded” stand apart in the source; their conditions may differ. Where two headings read alike, the source gives them in different places.

Tests used:
[1] = Cytotoxicity, EZ4U Cell Proliferation and Cytotoxicity Assay; assay type: cell-based, human; conditions: human
Protocol: (§1) All compounds have no intrinsic toxicity in the concentration range up to 100 μM (Figure 8) in HeLa cells, with the exception of 16a and berberine, which are toxic at concentrations above 20 μM. 16a is slightly toxic (CC50 ~ 100 μM) and differs from non-toxic 10a in the presence of a double bond in the sultone cycle. The original berberine 1 is toxic to HeLa cells with a cytotoxic concentration (CC50) of 20 μM, which is consistent with the literature data.
(§2) Cytotoxicity of the compounds to HeLa (human cervical cancer) cell line was examined using the EZ4U Cell Proliferation and Cytotoxicity Assay (Biomedica, Vienna, Austria), according to the manufacturer’s protocols. The cells were grown in Iscove’s modified Dulbecco’s medium (IMDM) with 40 μg/mL gentamicin, 50 IU/mL penicillin, 50 μg/mL streptomycin (MP Biomedicals, Waltham, MA, USA), and 10% of fetal bovine serum (Biolot, Saint Petersburg, Russia) in a 5% CO2 atmosphere. After the formation of a 30–50%-monolayer, the tested compounds were added to the medium. The volume of the added reagents was 1/100 of the total volume of the culture medium, and the amount of DMSO was 1% of the final volume. Control cells were grown in the presence of 1% DMSO. The cell culture was monitored for 3 days.

[2] = target: T1, tyrosyl-DNA phosphodiesterase 1 (Tdp1) (Homo sapiens, UniProt Q9NUW8); assay: Tdp1 activity, fluorescent oligonucleotide biosensor (FAM/BHQ1) assay; assay type: biochemical; conditions: purified Tdp1 1.5 nM, 50 nM biosensor; read-out: Tdp1 inhibiting activity IC50
T1 construct: Purified Tdp1 (1.5 nM) triggered the reaction
Protocol: In this work, newly synthesized sultones were tested for their inhibition of Tdp1. Tdp1 activity was measured using a fluorescent biosensor as previously described. The biosensor is an oligonucleotide with a fluorophore (FAM) at the 5′-end and a fluorescence quencher (BHQ1) at the 3′-end. Due to the activity of the enzyme, the quencher is removed, which leads to an increase in the fluorescence intensity. Inhibitors prevent the removal of the quencher, thus reducing the fluorescence intensity.
Tdp1 activity was detected, as described in the work in Reference, and consists of fluorescence intensity measurement in a reaction of quencher removal from a fluorophore quencher–coupled DNA oligonucleotide catalyzed by Tdp1. The reaction was carried out at different concentrations of inhibitors (the control samples contained 1% of DMSO). The reaction mixtures contained Tdp1 buffer (50 mM Tris-HCl pH 8.0, 50 mM NaCl, and 7 mM β-mercaptoethanol), 50 nM biosensor, and an inhibitor being tested. Purified Tdp1 (1.5 nM) triggered the reaction. The biosensor (5′-[FAM] AAC GTC AGGGTC TTC C [BHQ]-3′) was synthesized in the Laboratory of Biomedical Chemistry at the Institute of Chemical Biology and Fundamental Medicine (Novosibirsk, Russia).
The reactions were incubated on a POLARstar OPTIMA fluorimeter (BMG LABTECH, GmbH, Ortenberg, Germany) to measure fluorescence every 55 s (ex. 485/em. 520 nm) during the linear phase (here, data from minute 0 to minute 8). The values of IC50 were determined using a six-point concentration response curve in a minimum of three independent experiments and were calculated using MARS Data Analysis 2.0 (BMG LABTECH, Ortenberg, Germany).

[3] = system: HeLa cells; assay: Cytotoxicity, EZ4U Cell Proliferation and Cytotoxicity Assay; assay type: cell-based, human
Protocol: as §1, §2

[4] = system: HeLa cells; assay: Sensitization of cells to topotecan cytotoxicity by Tdp1 inhibitors; assay type: cell-based, human; conditions: inhibitor at 20 μM, varied topotecan concentrations; Mann-Whitney U-test, p = 0.05
Protocol: In this work, we also tested the ability of the berberrubine sultones to sensitize cells to the action of topotecan. For this, we chose a non-toxic concentration of Tdp1 inhibitors at 20 μM and varied the concentrations of topotecan.
as §2

[5] = target: T1, tyrosyl-DNA phosphodiesterase 1 (Tdp1); conditions: previous work of the group; read-out: Tdp1 IC50 of previously synthesized berberine derivatives; cited from earlier work

T1 sequence (Q9NUW8 whole entry): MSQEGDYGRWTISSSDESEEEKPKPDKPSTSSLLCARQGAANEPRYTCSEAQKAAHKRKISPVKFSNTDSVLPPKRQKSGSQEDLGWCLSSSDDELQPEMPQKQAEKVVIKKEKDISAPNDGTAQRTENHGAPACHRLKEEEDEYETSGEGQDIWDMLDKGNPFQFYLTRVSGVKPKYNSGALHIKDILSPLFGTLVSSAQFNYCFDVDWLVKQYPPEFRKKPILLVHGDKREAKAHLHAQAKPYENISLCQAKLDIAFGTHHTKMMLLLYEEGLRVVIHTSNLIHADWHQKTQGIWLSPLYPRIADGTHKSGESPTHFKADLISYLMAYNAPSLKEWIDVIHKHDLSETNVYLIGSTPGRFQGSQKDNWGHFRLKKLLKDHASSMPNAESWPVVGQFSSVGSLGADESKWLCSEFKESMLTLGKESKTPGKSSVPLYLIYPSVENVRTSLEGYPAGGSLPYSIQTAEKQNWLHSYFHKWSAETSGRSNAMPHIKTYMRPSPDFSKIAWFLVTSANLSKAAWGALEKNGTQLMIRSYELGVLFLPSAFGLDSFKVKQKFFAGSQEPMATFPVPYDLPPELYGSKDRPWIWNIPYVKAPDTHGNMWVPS

SMILES	CC50 at 3 days [1] [nM]	IC50 [2]	also measured
COc1ccc2c3c1OS(=O)(=O)CC3N1CCc3cc4c(cc3C1=C2)OCO4 (stereo not drawn) [10a, 19-Methoxy-8,10,21-trioxa-22λ⁶-thia-2-azahexacyclo[14.7.1.0^2,¹⁴.0⁵,¹^3.0⁷,¹¹.0^2⁰,^2⁴]tetracosa-5,7(11),12,14,16,18,20(24)-heptaene-22,22-dione]	> 100000	1530 ± 180 nM	
COc1ccc2c3c1OS(=O)(=O)C(C)C3N1CCc3cc4c(cc3C1=C2)OCO4 (stereo not drawn) [10b, 19-Methoxy-23-methyl-8,10,21-trioxa-22λ⁶-thia-2-azahexacyclo[14.7.1.0^2,¹⁴.0⁵,¹^3.0⁷,¹¹.0^2⁰,^2⁴]tetracosa-5,7(11),12,14,16,18,20(24)-heptaene-22,22-dione]	> 100000	2130 ± 160 nM	
CCC1C2c3c(ccc(OC)c3OS1(=O)=O)C=C1c3cc4c(cc3CCN12)OCO4 (stereo not drawn) [10c, 23-Ethyl-19-methoxy-8,10,21-trioxa-22λ⁶-thia-2-azahexacyclo[14.7.1.0^2,¹⁴.0⁵,¹^3.0⁷,¹¹.0^2⁰,^2⁴]tetracosa-5,7(11),12,14,16,18,20(24)-heptaene-22,22-dione]	> 100000	5500 ± 100 nM	
CCCC1C2c3c(ccc(OC)c3OS1(=O)=O)C=C1c3cc4c(cc3CCN12)OCO4 (stereo not drawn) [10d, 19-Methoxy-23-propyl-8,10,21-trioxa-22λ⁶-thia-2-azahexacyclo[14.7.1.0^2,¹⁴.0⁵,¹^3.0⁷,¹¹.0^2⁰,^2⁴]tetracosa-5,7(11),12,14,16,18,20(24)-heptaene-22,22-dione]	> 100000	1120 ± 180 nM	
COc1ccc2c3c1OS(=O)(=O)C=C3N1CCc3cc4c(cc3C1=C2)OCO4 [16a, 19-Methoxy-8,10,21-trioxa-22λ⁶-thia-2-azahexacyclo[14.7.1.0^2,¹⁴.0⁵,¹^3.0⁷,¹¹.0^2⁰,^2⁴]tetracosa-1(23),5,7(11),12,14,16,18,20(24)-octaene-22,22-dione]	~100000	2500 ± 400 nM	concentration above which toxic to HeLa cells ([3]; human, 3 days): above 20 μM
COc1cc(Br)c2c3c1OS(=O)(=O)CC3N1CCc3cc4c(cc3C1=C2)OCO4 (stereo not drawn) [18a, 17-Bromo-19-methoxy-8,10,21-trioxa-22λ⁶-thia-2-azahexacyclo[14.7.1.0^2,¹⁴.0⁵,¹^3.0⁷,¹¹.0^2⁰,^2⁴]tetracosa-5,7(11),12,14,16,18,20(24)-heptaene-22,22-dione]	> 100000	925 nM and 920 nM	
COc1cc(Br)c2c3c1OS(=O)(=O)C(C)C3N1CCc3cc4c(cc3C1=C2)OCO4 (stereo not drawn) [18b, 17-Bromo-19-methoxy-23-methyl-8,10,21-trioxa-22λ⁶-thia-2-azahexacyclo[14.7.1.0^2,¹⁴.0⁵,¹^3.0⁷,¹¹.0^2⁰,^2⁴]tetracosa-5,7(11),12,14,16,18,20(24)-heptaene-22,22-dione]	> 100000	1130 ± 200 nM	
CCC1C2c3c(c(Br)cc(OC)c3OS1(=O)=O)C=C1c3cc4c(cc3CCN12)OCO4 (stereo not drawn) [18c, 17-Bromo-23-ethyl-19-methoxy-8,10,21-trioxa-22λ⁶-thia-2-azahexacyclo[14.7.1.0^2,¹⁴.0⁵,¹^3.0⁷,¹¹.0^2⁰,^2⁴]tetracosa-5,7(11),12,14,16,18,20(24)-heptaene-22,22-dione]	> 100000	560 ± 20 nM	sensitizing effect on topotecan cytotoxicity [4]: most pronounced and statistically significant; also recorded: enhances the cytotoxic effect of topotecan
CCCC1C2c3c(c(Br)cc(OC)c3OS1(=O)=O)C=C1c3cc4c(cc3CCN12)OCO4 (stereo not drawn) [18d, 17-Bromo-19-methoxy-23-propyl-8,10,21-trioxa-22λ⁶-thia-2-azahexacyclo[14.7.1.0^2,¹⁴.0⁵,¹^3.0⁷,¹¹.0^2⁰,^2⁴]tetracosa-5,7(11),12,14,16,18,20(24)-heptaene-22,22-dione]	> 100000	780 ± 30 nM	
COc1ccc2c(c1OS(C)(=O)=O)CN1CCc3cc4c(cc3C1C2)OCO4 (stereo not drawn) [21a]			IC50 [5]: > 15000 nM
CCS(=O)(=O)Oc1c(OC)ccc2c1CN1CCc3cc4c(cc3C1C2)OCO4 (stereo not drawn) [21b]			IC50 [5]: > 15000 nM
COc1ccc2cc3[n+](cc2c1OC)CCc1cc2c(cc1-3)OCO2 [berberine 1, berberine]			concentration above which toxic to HeLa cells ([3]; HeLa cells): above 20 μM; CC50 at 3 days ([1]; HeLa cells, EZ4U test, 3 days, read-out: CC50 HeLa): 20000 nM
